Data taken from the NIST ThermoML archive (doi:10.1021/acs.jced.8b00692).
± gives the expanded uncertainty stated by the source.

Assay: xn = mol fraction of the nth substance listed
Settings: 102 kPa, Liquid; for viscosity: Concentric cylinders viscometry; for speed of sound: Frequency=3 MHz, Single path-length method; for mass density: Vibrating tube method

CCCCCCCCCCC1CCCCC1 [decylcyclohexane] + CCCCCCCCCCCCCCCC
Settings	mass density [kg/m3]	speed of sound [m/s]	viscosity [mPa·s]
293.15 K, x1 = 0.2	781.98 ± 0.81	1366.2 ± 0.7	3.73 ± 0.03
293.15 K, x1 = 0.4	790.75 ± 0.81	1375.8 ± 0.7	4.03 ± 0.02
293.15 K, x1 = 0.4999	795.26 ± 0.81	1380.7 ± 0.7	4.19 ± 0.02
293.15 K, x1 = 0.6008	799.82 ± 0.81	1385.6 ± 0.8	4.36 ± 0.03
293.15 K, x1 = 0.7237	805.48 ± 0.81	1392 ± 0.8	4.63 ± 0.02
293.15 K, x1 = 1	818.55 ± 0.81	1406.7 ± 0.9	5.32 ± 0.03
303.15 K, x1 = 0.2	775.08 ± 0.81	1329 ± 0.7	2.95 ± 0.02
303.15 K, x1 = 0.4	783.89 ± 0.81	1338.4 ± 0.7	3.16 ± 0.02
303.15 K, x1 = 0.4999	788.42 ± 0.81	1343.3 ± 0.7	3.29 ± 0.02
303.15 K, x1 = 0.6008	792.99 ± 0.81	1348.3 ± 0.7	3.41 ± 0.02
303.15 K, x1 = 0.7237	798.67 ± 0.81	1354.7 ± 0.8	3.6 ± 0.02
303.15 K, x1 = 1	811.78 ± 0.81	1369.4 ± 0.9	4.09 ± 0.02
313.15 K, x1 = 0.2	768.19 ± 0.81	1292.6 ± 0.7	2.39 ± 0.02
313.15 K, x1 = 0.4	777.04 ± 0.81	1301.9 ± 0.7	2.54 ± 0.02
313.15 K, x1 = 0.4999	781.59 ± 0.81	1306.8 ± 0.7	2.64 ± 0.02
313.15 K, x1 = 0.6008	786.18 ± 0.81	1311.8 ± 0.7	2.73 ± 0.02
313.15 K, x1 = 0.7237	791.88 ± 0.81	1318.3 ± 0.8	2.87 ± 0.02
313.15 K, x1 = 1	805.02 ± 0.81	1333 ± 0.9	3.23 ± 0.02
323.15 K, x1 = 0.2	761.3 ± 0.81	1256.8 ± 0.7	1.97 ± 0.01
323.15 K, x1 = 0.4	770.2 ± 0.81	1266.2 ± 0.7	2.09 ± 0.02
323.15 K, x1 = 0.4999	774.76 ± 0.81	1271.1 ± 0.7	2.18 ± 0.02
323.15 K, x1 = 0.6008	–	1276.2 ± 0.7	2.24 ± 0.02
323.15 K, x1 = 0.7237	–	1282.7 ± 0.8	2.34 ± 0.02
323.15 K, x1 = 1	–	1297.5 ± 0.9	2.62 ± 0.02
